This assay has as its target T1, IDE (Homo sapiens, UniProt P14735).
T1 construct: made in house; host or cells: bacteria
T1 sequence (P14735 1-1019): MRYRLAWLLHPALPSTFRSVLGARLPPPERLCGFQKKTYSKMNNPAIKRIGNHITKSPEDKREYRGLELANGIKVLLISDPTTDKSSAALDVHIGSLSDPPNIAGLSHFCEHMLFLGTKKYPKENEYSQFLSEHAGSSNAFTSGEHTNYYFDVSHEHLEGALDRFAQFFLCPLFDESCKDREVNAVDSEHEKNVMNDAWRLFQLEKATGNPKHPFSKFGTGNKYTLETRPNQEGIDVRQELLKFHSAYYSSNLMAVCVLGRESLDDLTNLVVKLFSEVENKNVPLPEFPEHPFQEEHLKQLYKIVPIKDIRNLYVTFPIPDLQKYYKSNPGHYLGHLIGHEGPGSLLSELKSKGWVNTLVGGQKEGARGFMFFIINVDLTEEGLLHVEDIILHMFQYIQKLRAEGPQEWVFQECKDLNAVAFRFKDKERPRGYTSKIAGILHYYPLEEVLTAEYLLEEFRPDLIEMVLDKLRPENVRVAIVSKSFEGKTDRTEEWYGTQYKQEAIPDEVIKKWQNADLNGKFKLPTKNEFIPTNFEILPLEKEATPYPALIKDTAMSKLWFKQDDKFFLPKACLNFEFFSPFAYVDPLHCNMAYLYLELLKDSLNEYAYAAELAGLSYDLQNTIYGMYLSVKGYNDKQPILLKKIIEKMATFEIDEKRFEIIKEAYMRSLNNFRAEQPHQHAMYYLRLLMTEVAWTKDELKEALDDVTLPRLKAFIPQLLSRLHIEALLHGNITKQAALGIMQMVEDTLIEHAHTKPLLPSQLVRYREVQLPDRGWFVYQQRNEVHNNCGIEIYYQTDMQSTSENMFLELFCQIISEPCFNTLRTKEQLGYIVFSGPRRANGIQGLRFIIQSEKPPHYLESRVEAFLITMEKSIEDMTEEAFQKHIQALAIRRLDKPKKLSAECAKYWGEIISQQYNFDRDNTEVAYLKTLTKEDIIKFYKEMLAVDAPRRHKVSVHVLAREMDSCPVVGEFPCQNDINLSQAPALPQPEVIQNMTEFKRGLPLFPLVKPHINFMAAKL
In words: biochemical. Particulars: for IC50 <500 uM?: initial test at 500 uM. On the procedure: The six selected peptide sequences (C7C-1, C7C-2, 12–1, 12–2, 12–3 and 12–4) were synthesized, together with a variety of modifications, yielding a total of 25 peptides (Table 1). […] Other modifications included N-terminal acetylation and C-terminal amidation, included to mimic the charge state of the peptides when incorporated in the phage coat protein (Table 1).
IDE activity was quantified by monitoring the degradation of Mca-[…](Dnp) (FRET1, 5 μM), fluoresceinated and biotinylated amyloid ß-protein (FAßB; 500 nM) or recombinant human insulin (50 nM) in PBS supplemented with 0.05% BSA. […] In vitro activity assays incorporated recombinant human IDE (1 nM) purified from bacteria. For quantitation of insulin degradation in primary murine skin fibroblasts, cells (1 x 10^5/well) were plated in 96-well plates and maintained in DMEM supplemented with 10% fetal bovine serum (FBS), 2mM glutamine, penicillin and streptomycin. After addition of insulin (10 nM or 100 nM), samples of conditioned medium were removed daily and quickly frozen, then insulin levels were quantified in parallel by ELISA according to manufacturer’s recommendations (Crystal Chem, Downers Grove, IL, USA). Assessment of the activity of P12-3A against a variety of matrix-metalloproteases was conducted using the Matrix Metalloproteinase (MMP) Inhibitor Profiling Kit, Fluorometric RED (Enzo Life Sciences, Inc., Farmingdale, NY, USA) according to manufacturer’s recommendations using the broad-spectrum MMP inhibitor, NNGH, as a positive control.

Setting [1] is: initial test, percent of initial velocity relative to DMSO-only controls, N 4, read-out: Percent activity at 500 uM, Mean.
Setting [2] is: initial test, percent of initial velocity relative to DMSO-only controls, individual replicates, read-out: Percent activity at 500 uM, Replicate 1-4.
Setting [3] is: judged as IC50 <100 uM?, N 4, read-out: Percent activity at 500 uM, Mean.
[4] abbreviates: judged as IC50 <100 uM?, individual replicates, read-out: Percent activity at 500 uM, Replicate 1-4.

Here are results for four compounds from PMC5814047, “Peptidic inhibitors of insulin-degrading enzyme with potential for dermatological applications discovered via phage display” (PLoS ONE, 2018).

Read-outs that look alike come from different tables or passages of the source. Bridge positions count the residues as written; N and C are the ends. Peptide text beside a SMILES is read from it.

In the case of `CC[C@H](C)[C@@H]1NC(=O)[C@H](CO)NC(=O)[C@H](Cc2c[nH]c3ccccc23)NC(=O)[C@H](Cc2c[nH]c3ccccc23)NC(=O)[C@H](CO)NC(=O)[C@@H](NC(=O)[C@H](C)N)CSSC[C@@H](C(=O)NCC(N)=O)NC(=O)[C@H](CC(C)C)NC(=O)[C@H](Cc2c[nH]cn2)NC1=O` [C7C-1A] (H-ACSWWSIHLCG-NH2; disulfide 2-10 (inferred)), the “IC50 <500 uM?” value is “YES”. In addition, under setting [1], the remaining activity at 500 µM was 22.5%. In addition, the remaining activity at 500 µM under setting [2] was found to be 25.1%. Under setting [3], the remaining activity at 500 µM was determined as 59.5%. The remaining activity at 500 µM under setting [4] was found to be 56.6%.
Taken in the same sequence, the figures for `CC[C@H](C)[C@@H]1NC(=O)[C@H](CO)NC(=O)[C@H](Cc2c[nH]c3ccccc23)NC(=O)[C@H](Cc2c[nH]c3ccccc23)NC(=O)[C@H](CO)NC(=O)[C@@H](NC(=O)[C@H](C)N)CSSC[C@@H](C(=O)NCC(=O)NCC(=O)NCC(=O)O)NC(=O)[C@H](CC(C)C)NC(=O)[C@H](Cc2c[nH]cn2)NC1=O` [C7C-1B] (H-ACSWWSIHLCGGG-OH; disulfide 2-10 (inferred)) were “YES”, 30.4%, 30.3%, 56.8% and 63.2%.
With `CC(C)C[C@@H]1NC(=O)[C@H](Cc2c[nH]cn2)NC(=O)CNC(=O)[C@H](C)NC(=O)[C@H](CC(N)=O)NC(=O)[C@@H](NC(=O)[C@H](C)N)CSSC[C@@H](C(=O)NCC(N)=O)NC(=O)[C@H](CCC(N)=O)NC(=O)[C@H](CO)NC1=O` [C7C-2A] (H-ACNAGHLSQCG-NH2; disulfide 2-10 (inferred)), the remaining activity at 500 µM under setting [1] stood at 94.1%, the remaining activity at 500 µM under setting [3] was found to be 92.7% and the remaining activity at 500 µM under setting [4] worked out at 92.5%.
As to `CC(C)C[C@@H]1NC(=O)[C@H](Cc2c[nH]cn2)NC(=O)CNC(=O)[C@H](C)NC(=O)[C@H](CC(N)=O)NC(=O)[C@@H](NC(=O)[C@H](C)N)CSSC[C@@H](C(=O)NCC(=O)O)NC(=O)[C@H](CCC(N)=O)NC(=O)[C@H](CO)NC1=O` [C7C-2] (H-ACNAGHLSQCG-OH; disulfide 2-10 (inferred)), the remaining activity at 500 µM by setting is: under setting [1], 54%; under setting [2], 48.4%; under setting [3], 72.8%; under setting [4], 76.4%.
